{"source": "paper PMC11364775", "about": "“Ion occupancy of the selectivity filter controls opening of a cytoplasmic gate in the K2P channel TALK-2” (Nature Communications, 2024)", "key": {"[1]": {"test_system": "WT TREK-1 channels (human K2P2.1)", "conditions": "TREK-1 WT", "procedure": "Oocytes were surgically removed from anesthetized adult females, treated with type II collagenase (Sigma-Aldrich/Merck, Germany) and manually defolliculated. 50 nl of a solution containing the K^+ channel specific cRNA was injected into Dumont stage V - VI oocytes and subsequently incubated at 17 °C in a solution containing (mM): 54 NaCl, 30 KCl, 2.4 NaHCO3, 0.82 MgSO4 x 7 H2O, 0.41 CaCl2, 0.33 Ca(NO3)2 x 4 H2O and 7.5 TRIS (pH 7.4 adjusted with NaOH/HCl) for 1–7 days before use. Electrophysiological recordings: Excised patch measurements in inside-out configuration under voltage-clamp conditions were performed at room temperature (22 – 24 °C). […] Intracellular bath solutions and compounds were applied to the cytoplasmic side of excised patches for the various K^+ channels via a gravity flow multi-barrel pipette system. Intracellular solution had the following composition (in mM): 120 KCl, 10 HEPES, 2 EGTA and 1 Pyrophosphate (pH adjusted with KOH/HCl). In other intracellular bath solutions, K^+ was replaced by Rb^+ (pH 7.4 adjusted with RbOH/HCl). Currents were recorded with an EPC10 amplifier (HEKA electronics, Germany) and sampled at 10 kHz or higher and filtered with 3 kHz (-3 dB) or higher as appropriate for sampling rate.\nRecorded currents were analyzed from stable membrane patches at a voltage defined in the respective figure legend or with a voltage protocol as indicated in the respective figure. The fold activation (fold change in (tail) current amplitude) of a ligand (drug or bioactive lipid) was calculated from Eq. 1:1 Fold activationFA=Iactivated/Ibasal where Iactivated represents the stable current level in the presence of a given concentration of a respective ligand and Ibasal the measured current before ligand application. Percentage inhibition or residual currents upon blocker application for a ligand (drug or bioactive lipid) was calculated from stable currents of excised membrane patches using the following Eqs. 2 and 3:2 %inhibition=1−Iinhibited/Ibasal*100 3 Residual current=100−%inhibition where Iinhibited refers to the stable current level recorded in the presence of a given concentration of a drug or bioactive lipid and Ibasal to the measured current before ligand application. The macroscopic half-maximal concentration-inhibition relationship of a ligand was obtained using a Hill-fit for dose-response curves as depicted in Eq. 4:4 %inhibition/activation=Ibase+Imax−Ibase/1+x1/2/x^rate where base and max are the currents in the absence and presence of a respective ligand, x is the concentration of the ligand, x1/2 is the ligand concentration at which the activatory or inhibitory effect is half-maximal, rate is the Hill coefficient."}, "[2]": {"biological_target": "T1, TALK-2 L264A mutant channels (Homo sapiens, UniProt Q96T54, L264A)", "T1 sequence (Q96T54 1-332 L264A)": "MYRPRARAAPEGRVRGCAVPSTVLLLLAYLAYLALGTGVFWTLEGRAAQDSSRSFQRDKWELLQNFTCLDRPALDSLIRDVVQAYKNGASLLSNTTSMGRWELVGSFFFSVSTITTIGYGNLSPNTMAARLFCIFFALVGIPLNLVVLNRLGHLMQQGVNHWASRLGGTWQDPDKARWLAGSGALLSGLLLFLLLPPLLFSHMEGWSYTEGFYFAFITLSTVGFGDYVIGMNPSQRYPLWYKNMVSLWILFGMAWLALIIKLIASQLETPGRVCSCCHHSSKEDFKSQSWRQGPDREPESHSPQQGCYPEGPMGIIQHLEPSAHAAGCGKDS", "assay": "Pore blocker inhibition (dose-response, residual currents) in inside-out patches at +40 mV", "assay_type": "cell-based", "set-up": "expressed in transfected cells; host or cells: Xenopus laevis oocytes (cRNA injection), excised inside-out patches", "procedure": "(§1) Data shown are the mean ± s.e.m and the number (n) of independent experiments and repeats of representative measurements with similar results is indicated in the figure.\n(§2) Electrophysiological recordings: Excised patch measurements in inside-out configuration under voltage-clamp conditions were performed at room temperature (22 – 24 °C). Patch pipettes were made from thick-walled borosilicate glass GB 200TF-8P (Science Products, Germany), had resistances of 0.2–0.5 MΩ (tip diameter of 10 - 25 µm) and filled with a pipette solution (in mM): 120 KCl, 10 HEPES and 3.6 CaCl2 (pH 7.0 - 8.5 adjusted with KOH/HCl) or 120 KCl, 10 AMPSO and 3.6 CaCl2 (pH 9.0 - 10.5 adjusted with KOH/HCl). Intracellular bath solutions and compounds were applied to the cytoplasmic side of excised patches for the various K^+ channels via a gravity flow multi-barrel pipette system. Intracellular solution had the following composition (in mM): 120 KCl, 10 HEPES, 2 EGTA and 1 Pyrophosphate (pH adjusted with KOH/HCl). In other intracellular bath solutions, K^+ was replaced by Rb^+ (pH 7.4 adjusted with RbOH/HCl). Currents were recorded with an EPC10 amplifier (HEKA electronics, Germany) and sampled at 10 kHz or higher and filtered with 3 kHz (-3 dB) or higher as appropriate for sampling rate.\n(§3) Data analysis and statistics were done using Fitmaster (HEKA electronics, version: v2x73.5, Germany), Microsoft Excel 2021 (Microsoft Corporation, USA), and Igor Pro 9 software (WaveMetrics Inc., USA). Recorded currents were analyzed from stable membrane patches at a voltage defined in the respective figure legend or with a voltage protocol as indicated in the respective figure. […] Percentage inhibition or residual currents upon blocker application for a ligand (drug or bioactive lipid) was calculated from stable currents of excised membrane patches using the following Eqs. 2 and 3:2 %inhibition=1−Iinhibited/Ibasal*100 3 Residual current=100−%inhibition where Iinhibited refers to the stable current level recorded in the presence of a given concentration of a drug or bioactive lipid and Ibasal to the measured current before ligand application."}, "WT TALK-2 channels": {"biological_target": "T2, WT TALK-2 channels (Homo sapiens, UniProt Q96T54)", "T2 sequence (Q96T54 1-332)": "T1 sequence (Q96T54 1-332 L264A) with A264L", "assay": "Pore blocker inhibition (dose-response, residual currents) in inside-out patches at +40 mV", "assay_type": "cell-based", "set-up": "expressed in transfected cells; host or cells: Xenopus laevis oocytes (cRNA injection), excised inside-out patches", "conditions": "for IC50: IC50 of TPenA inhibition", "procedure": "as §1, §2, §3"}}, "note": "Positions count from the first letter of the chain named. Read-outs that look alike come from different tables or passages of the source."}
{"smiles": "NCCOB(c1ccccc1)c1ccccc1", "note": "[2-APB, 2-aminoethoxydiphenyl borate]", "values": [{"measurement": "Normalized currents", "setting": "[1]; 0.1 µM 2-APB", "value": 0.03}, {"measurement": "Normalized currents", "setting": "[1]; 1 µM 2-APB", "value": 0.04}, {"measurement": "Normalized currents", "setting": "[1]; 10 µM 2-APB", "value": 0.08}, {"measurement": "Normalized currents", "setting": "[1]; 100 µM 2-APB", "value": 0.28}, {"measurement": "Normalized currents", "setting": "[1]; 200 µM 2-APB", "value": 0.47}, {"measurement": "Normalized currents", "setting": "[1]; 500 µM 2-APB", "value": 0.80}, {"measurement": "Normalized currents", "setting": "[1]; 1000 µM 2-APB", "value": 0.97}, {"measurement": "Normalized currents", "setting": "[1]; 2000 µM 2-APB", "value": 0.99}]}
{"smiles": "CCCCC[N+](CCCCC)(CCCCC)CCCCC", "note": "[TPenA, Tetra-pentyl-ammonium chloride]", "values": [{"measurement": "IC50", "setting": "[2]", "value": "459 ± 58", "unit": "µM"}, {"measurement": "Residual currents with 1 mM TPenA", "setting": "[2]; TALK-2 L264A, +40 mV", "value": 29.31, "unit": "%"}, {"measurement": "Normalized currents", "setting": "[2]; TALK-2 L264A, 1 µM TPenA", "value": 0.99}, {"measurement": "Normalized currents", "setting": "[2]; TALK-2 L264A, 10 µM TPenA", "value": 0.97}, {"measurement": "Normalized currents", "setting": "[2]; TALK-2 L264A, 100 µM TPenA", "value": 0.77}, {"measurement": "Normalized currents", "setting": "[2]; TALK-2 L264A, 1000 µM TPenA", "value": 0.32}, {"measurement": "Normalized currents", "setting": "[2]; TALK-2 L264A, 4000 µM TPenA", "value": 0.17}, {"measurement": "IC50", "setting": "WT TALK-2 channels; 0.2 mM 2-APB, n = 7, legend of Fig. 5e", "value": "778 ± 116", "unit": "µM"}, {"measurement": "IC50", "setting": "WT TALK-2 channels; 0.5 mM 2-APB, n = 5, legend of Fig. 5e", "value": "215 ± 28", "unit": "µM"}, {"measurement": "IC50", "setting": "WT TALK-2 channels; 1.0 mM 2-APB, n = 16, legend of Fig. 5e", "value": "54 ± 10", "unit": "µM"}, {"measurement": "IC50", "setting": "WT TALK-2 channels; pre-activated with 0.2 mM 2-APB, +40 mV", "value": "1110 ± 411", "unit": "µM"}, {"measurement": "IC50", "setting": "WT TALK-2 channels; pre-activated with 0.5 mM 2-APB, +40 mV", "value": "225 ± 25", "unit": "µM"}, {"measurement": "Normalized currents", "setting": "WT TALK-2 channels; TALK-2 WT + 0.2 mM 2-APB, 1 µM TPenA", "value": 1.00}, {"measurement": "Normalized currents", "setting": "WT TALK-2 channels; TALK-2 WT + 0.2 mM 2-APB, 10 µM TPenA", "value": 0.87}, {"measurement": "Normalized currents", "setting": "WT TALK-2 channels; TALK-2 WT + 0.2 mM 2-APB, 100 µM TPenA", "value": 0.81}, {"measurement": "Normalized currents", "setting": "WT TALK-2 channels; TALK-2 WT + 0.2 mM 2-APB, 1000 µM TPenA", "value": 0.47}, {"measurement": "Normalized currents", "setting": "WT TALK-2 channels; TALK-2 WT + 0.2 mM 2-APB, 10000 µM TPenA", "value": 0.15}, {"measurement": "Normalized currents", "setting": "WT TALK-2 channels; TALK-2 WT + 0.5 mM 2-APB, 1 µM TPenA", "value": 1.02}, {"measurement": "Normalized currents", "setting": "WT TALK-2 channels; TALK-2 WT + 0.5 mM 2-APB, 10 µM TPenA", "value": 0.89}, {"measurement": "Normalized currents", "setting": "WT TALK-2 channels; TALK-2 WT + 0.5 mM 2-APB, 100 µM TPenA", "value": 0.63}, {"measurement": "Normalized currents", "setting": "WT TALK-2 channels; TALK-2 WT + 0.5 mM 2-APB, 1000 µM TPenA", "value": 0.25}, {"measurement": "Normalized currents", "setting": "WT TALK-2 channels; TALK-2 WT + 0.5 mM 2-APB, 10000 µM TPenA", "value": 0.08}, {"measurement": "Normalized currents", "setting": "WT TALK-2 channels; TALK-2 WT + 1.0 mM 2-APB, 1 µM TPenA", "value": 1.00}, {"measurement": "Normalized currents", "setting": "WT TALK-2 channels; TALK-2 WT + 1.0 mM 2-APB, 10 µM TPenA", "value": 0.87}, {"measurement": "Normalized currents", "setting": "WT TALK-2 channels; TALK-2 WT + 1.0 mM 2-APB, 100 µM TPenA", "value": 0.33}, {"measurement": "Normalized currents", "setting": "WT TALK-2 channels; TALK-2 WT + 1.0 mM 2-APB, 1000 µM TPenA", "value": 0.07}, {"measurement": "Normalized currents", "setting": "WT TALK-2 channels; TALK-2 WT + 1.0 mM 2-APB, 2000 µM TPenA", "value": 0.06}, {"measurement": "Normalized currents", "setting": "WT TALK-2 channels; TALK-2 WT + 1.0 mM 2-APB, 5000 µM TPenA", "value": 0.06}, {"measurement": "Normalized currents", "setting": "WT TALK-2 channels; TALK-2 WT + 1.0 mM 2-APB, 10000 µM TPenA", "value": 0.01}, {"measurement": "Residual currents with 1 mM TPenA", "setting": "WT TALK-2 channels; TALK-2 WT unstimulated, +40 mV", "value": 101.31, "unit": "%"}, {"measurement": "Residual currents with 1 mM TPenA", "setting": "WT TALK-2 channels; TALK-2 WT, 0.2 mM 2-APB, +40 mV", "value": 47.38, "unit": "%"}, {"measurement": "Residual currents with 1 mM TPenA", "setting": "WT TALK-2 channels; TALK-2 WT, 0.5 mM 2-APB, +40 mV", "value": 25.47, "unit": "%"}, {"measurement": "Residual currents with 1 mM TPenA", "setting": "WT TALK-2 channels; TALK-2 WT, 1.0 mM 2-APB, +40 mV", "value": 6.78, "unit": "%"}, {"measurement": "Normalized currents", "setting": "WT TALK-2 channels; TALK-2 WT, 1 µM TPenA", "value": 0.98}, {"measurement": "Normalized currents", "setting": "WT TALK-2 channels; TALK-2 WT, 10 µM TPenA", "value": 0.97}, {"measurement": "Normalized currents", "setting": "WT TALK-2 channels; TALK-2 WT, 100 µM TPenA", "value": 0.95}, {"measurement": "Normalized currents", "setting": "WT TALK-2 channels; TALK-2 WT, 1000 µM TPenA", "value": 0.95}, {"measurement": "Normalized currents", "setting": "WT TALK-2 channels; TALK-2 WT, 5000 µM TPenA", "value": 0.98}, {"measurement": "Normalized currents", "setting": "WT TALK-2 channels; TALK-2 WT, 10000 µM TPenA", "value": 0.99}, {"measurement": "TPenA block in the basal state", "setting": "WT TALK-2 channels; basal state (low PO), 1.0 mM TPenA", "value": "hardly any TPenA block"}]}
